The record followed here is ChEMBL document CHEMBL3046962, “Synthesis of new olefin chalcone derivatives as antitumor, antioxidant and antimicrobial agents” (Med Chem Res, 2012).

For series [1], the system named is Candida albicans. Briefly: Antimicrobial activity against Candida albicans MTCC 3017 at 10 ug after 48 hr by agar disk diffusion method. Type of series: functional. The following applies: MTCC 3017, 48 h, read-out: DIZ.
For series [2], the system named is Staphylococcus aureus. The series is described as follows: Antimicrobial activity against Staphylococcus aureus MTCC 96 at 100 ug after 24 hr by agar disk diffusion method. Type of series: functional. Conditions: MTCC 96, 24 h, read-out: DIZ.
A short description of series [3]: Cytotoxicity against Homo sapiens (human) HeLa-B75 at 100 ug after 72 hr by MTT assay. It counts as functional.
Series [4] can be described thus: Antioxidant activity assessed as ferric reducing activity at 100 ug after 20 min by UV-Visible spectrophotometry. More on the design: scale not given: the % may be the effect or the level left.
Series [5] concerns Candida albicans. Briefly: Antimicrobial activity against Candida albicans MTCC 3017 at 100 ug after 48 hr by agar disk diffusion method. Type of series: functional. The following applies: MTCC 3017, 48 h, read-out: DIZ.
The test system of series [6] is Escherichia coli. The series is described as follows: Antimicrobial activity against Escherichia coli DH5[alpha] at 100 ug after 24 hr by agar disk diffusion method. Type of series: functional. The following applies: read-out: DIZ.
A short description of series [7]: Cytotoxicity against Homo sapiens (human) HL60-P58 at 100 ug after 72 hr by MTT assay. Type of series: functional.
Series [8] can be described thus: Cytotoxicity against Homo sapiens (human) PN-5C-12 at 100 ug after 72 hr by MTT assay. The following applies: in vitro.
A short description of series [9]: Cytotoxicity against Homo sapiens (human) Hep-3BPN7 at 100 ug after 72 hr by MTT assay. Type of series: functional.
The subject of series [10] is Radical scavenging activity. Briefly: Antioxidant activity assessed as DPPH radical scavenging activity at 100 ug after 20 min by UV-Visible spectrophotometry. It counts as functional.
Series [11] concerns Proteus vulgaris. The series is described as follows: Antimicrobial activity against Proteus vulgaris MTCC 1751 at 100 ug after 24 hr by agar disk diffusion method. Type of series: functional. The following applies: MTCC 1751, 24 h, read-out: DIZ.
The nature of series [12]: Antioxidant activity assessed as hydroxyl radical scavenging activity at 100 ug after 5 min by UV-Visible spectrophotometry. Type of series: functional.
The test system of series [13] is Proteus vulgaris. Briefly: Antimicrobial activity against Proteus vulgaris MTCC 1751 at 20 ug after 24 hr by agar disk diffusion method. Type of series: functional. The following applies: MTCC 1751, 24 h, read-out: DIZ.
The test system of series [14] is Staphylococcus aureus. The series is described as follows: Antimicrobial activity against Staphylococcus aureus MTCC 96 at 20 ug after 24 hr by agar disk diffusion method. Type of series: functional. The following applies: MTCC 96, 24 h, read-out: DIZ.
Series [15] concerns Escherichia coli. The series is described as follows: Antimicrobial activity against Escherichia coli DH5[alpha] at 20 ug after 24 hr by agar disk diffusion method. The following applies: read-out: DIZ. It counts as functional.
Series [16] relates to Radical scavenging activity. The series is described as follows: Antioxidant activity assessed as DPPH radical scavenging activity at 1 mM after 20 min by UV-Visible spectrophotometry. Type of series: functional.
The nature of series [17]: Antioxidant activity assessed as ferric reducing activity at 1 mM after 5 min by UV-Visible spectrophotometry. It counts as functional. More on the design: scale not given: the % may be the effect or the level left.
Series [18] is described as follows: Antioxidant activity assessed as hydroxyl radical scavenging activity at 1 mM after 5 min by UV-Visible spectrophotometry. It counts as functional.

With `OC(Cn1cncn1)(Cn1cncn1)c1ccc(F)cc1F` [FLUCONAZOLE], the zone of inhibition at 10 µg/disc in the series with Candida albicans [1] amounted to 6.5 mm.

For the compound `COc1cc(OC)c(C2=CCN(C)CC2)c(OC)c1/C=C/C(=O)c1ccc(Cl)c(Cl)c1`, the zone of inhibition at 100 µg/disc in the series with Staphylococcus aureus [2] was found to be 5 mm; in the series on Candida albicans [5], 5.5 mm; with Escherichia coli [6], 1.5 mm; in the series with Proteus vulgaris [11] it was 9.1 mm. Further, the Activity in series [3] amounted to 85.93%; in series [4] it was 46.7%; in [7], 65.04%; in series [8] it was 67.19%; in series [9], 79.8%; in series [10], 56.9%. Moreover, in [12], the Activity is 59.8%.

On to `COc1cc(OC)c(C2=CCN(C)CC2)c(OC)c1/C=C/C(=O)c1ccc(C)cc1`, for which the zone of inhibition at 100 µg/disc with Staphylococcus aureus [2] was 5 mm; with Candida albicans [5], 0.1 mm; in the series with Escherichia coli [6], 2.5 mm; with Proteus vulgaris [11], 10.2 mm. Besides, the Activity in series [3] stood at 82.23%; in series [4], 68.1%; in [7], 69.49%; in series [8], 44.26%; in series [9] it was 72.53%; in series [10], 58.5%. In addition, the Activity in series [12] worked out at 59.8%.

`CN[C@@H]1[C@H](O[C@H]2[C@H](O[C@H]3[C@H](O)[C@@H](O)[C@H](N=C(N)N)[C@@H](O)[C@@H]3N=C(N)N)O[C@@H](C)[C@]2(O)C=O)O[C@@H](CO)[C@H](O)[C@H]1O` [STREPTOMYCIN]: the zone of inhibition at 20 µg/disc in the series with Proteus vulgaris [13] is 2.4 mm; in the series with Staphylococcus aureus [14], 2 mm; in the series on Escherichia coli [15], 2.5 mm.

With `COc1cc(OC)c(C2=CCN(C)CC2)c(OC)c1/C=C/C(=O)c1cc(Cl)ccc1Cl`, the zone of inhibition at 100 µg/disc with Staphylococcus aureus [2] turned out to be 1.5 mm; with Candida albicans [5], 1.5 mm; with Escherichia coli [6], 1.5 mm; in the series on Proteus vulgaris [11], 6.5 mm. Besides, the Activity amounted to 79.97% in [3]; 62.4% in series [4]; 65.63% in [7]; 60.47% in [8]; 70.8% in [9]; 55.4% in series [10]. Besides, the Activity in series [12] came out at 48.5%.

On to `COc1cc(OC)c(C2=CCN(C)CC2)c(OC)c1/C=C/C(=O)c1cccs1`, for which the zone of inhibition at 100 µg/disc stood at 2.5 mm with Staphylococcus aureus [2], 1.5 mm with Candida albicans [5], 1.1 mm with Escherichia coli [6] and 6.5 mm with Proteus vulgaris [11]. For the same compound, the Activity amounted to 84.91% in series [3]; 59.6% in [4]; 54.28% in [7]; 67.19% in series [8]; 79.8% in series [9]; 22.7% in series [10]. In addition, the Activity in [12] turned out to be 36.5%.

With `COc1cc(OC)c(C2=CCN(C)CC2)c(OC)c1/C=C/C(=O)c1ccc(N)cc1`, the zone of inhibition at 100 µg/disc in the series with Staphylococcus aureus [2] stood at 1.5 mm; in the series on Candida albicans [5] it was 2.9 mm; in the series with Escherichia coli [6], 6.5 mm; in the series on Proteus vulgaris [11] it was 5 mm. In addition, the Activity in [3] is 79.28%; in series [4], 48.3%; in [7] it was 61.17%; in [8] it was 49.67%; in [9], 75.06%; in [10] it was 89.6%. In series [12], the Activity turned out to be 54.1%.

`COc1cc(OC)c(C2=CCN(C)CC2)c(OC)c1/C=C/C(=O)c1ccc(Cl)cc1Cl`: the zone of inhibition at 100 µg/disc in the series on Staphylococcus aureus [2] turned out to be 1.1 mm; in the series with Candida albicans [5], 1.1 mm; with Escherichia coli [6], 2.5 mm; with Proteus vulgaris [11], 5.5 mm. Also, the Activity turned out to be 79.42% in [3]; 63.6% in series [4]; 58.99% in [7]; 50.98% in series [8]; 71.26% in series [9]; 56.7% in [10]. Further, the Activity in series [12] was determined as 48.1%.

For `COc1cc(OC)c(C2=CCN(C)CC2)c(OC)c1/C=C/C(=O)c1ccccc1`, the zone of inhibition at 100 µg/disc was found to be 5 mm with Staphylococcus aureus [2], 3.5 mm in the series on Candida albicans [5], 5.5 mm in the series with Escherichia coli [6] and 2.5 mm in the series on Proteus vulgaris [11]. Besides, the Activity was 84.15% in series [3]; 58.4% in series [4]; 63.52% in series [7]; 61.79% in [8]; 78.06% in series [9]; 27.9% in series [10]. Further, the Activity in series [12] turned out to be 41.4%.

Regarding `COc1ccc(C(=O)/C=C/c2c(OC)cc(OC)c(C3=CCN(C)CC3)c2OC)cc1OC`, the zone of inhibition at 100 µg/disc with Staphylococcus aureus [2] amounted to 0.5 mm; with Candida albicans [5] it was 1.5 mm; in the series on Escherichia coli [6], 2 mm; in the series on Proteus vulgaris [11], 5.5 mm. Moreover, the Activity in [3] was found to be 84.84%; in series [4], 50.7%; in series [7], 62.77%; in series [8], 65.21%; in series [9], 79.46%; in [10] it was 22.3%. In [12], the Activity was 35%.

Regarding `COc1cc(OC)c(C2=CCN(C)CC2)c(OC)c1/C=C/C(=O)c1ccc([N+](=O)[O-])cc1`, the zone of inhibition at 100 µg/disc with Staphylococcus aureus [2] was 5 mm; in the series with Candida albicans [5], 2 mm; with Escherichia coli [6], 2 mm; in the series on Proteus vulgaris [11], 4 mm. The Activity in series [3] is 83.67%; in series [4] it was 46.3%; in series [7] it was 65.88%; in series [8] it was 70.09%; in [9], 80.13%; in series [10] it was 25%. Besides, the Activity in [12] was 51.5%.

`O=C1O[C@H]([C@@H](O)CO)C(O)=C1O`: the Activity in [16] worked out at 95.8%; in [17], 78.2%; in series [18] it was 88.3%.
